Measured values as given in ChEMBL document CHEMBL2086258, “Laxiflorolides A and B, epimeric bishomoditerpene lactones from Isodon eriocalyx” (J Nat Prod, 2012).

Key:
Type in all cases: functional, cell-based
[1] = tested on: MCF7; assay: Cytotoxicity against human MCF7 cells after 48 hrs by MTT assay; details: MCF7, 48 h
[2] = tested on: SW480; assay: Cytotoxicity against human SW480 cells after 48 hrs by MTT assay; details: SW480, 48 h
[3] = tested on: HL-60; assay: Cytotoxicity against human HL60 cells after 48 hrs by MTT assay; details: HL-60, 48 h
[4] = tested on: SMMC-7721; assay: Cytotoxicity against human SMMC7721 cells after 48 hrs by MTT assay; details: SMMC-7721, 48 h
[5] = tested on: A549; assay: Cytotoxicity against human A549 cells after 48 hrs by MTT assay; details: A549, 48 h

| Structure (SMILES) | IC50 ([1]; read-out: IC50) [µM] | IC50 ([1]; read-out: pIC50 (converted)) [µM] | IC50 ([2]; read-out: IC50) [µM] | IC50 ([2]; read-out: pIC50 (converted)) [µM] | IC50 ([3]; read-out: IC50) [µM] | IC50 ([3]; read-out: pIC50 (converted)) [µM] | IC50 ([4]; read-out: IC50) [µM] | IC50 ([4]; read-out: pIC50 (converted)) [µM] | IC50 ([5]; read-out: IC50) [µM] | IC50 ([5]; read-out: pIC50 (converted)) [µM] |
| --- | --- | --- | --- | --- | --- | --- | --- | --- | --- | --- |
| CC1(C)[C@H]2[C@H](O)C(=O)[C@@H]3C[C@H](C(=O)O)CC[C@H]3[C@@]23CO[C@@H]1CC3=O [LAXIFLORIN Q] | > 40 | > 39.8 | > 40 | > 39.8 | > 40 | > 39.8 | > 40 | > 39.8 | > 40 | > 39.8 |
| C=C1[C@@H]2CC[C@H]3[C@@]45CO[C@](O)([C@@H](O)[C@@H]4C(C)(C)C=CC5=O)[C@]3(C2)[C@@H]1O [MAOECRYSTAL C] | 14.4 | 15.8 | 14.5 | 15.8 | 18.9 | 20 | > 40 | > 39.8 | > 40 | > 39.8 |
| C=C1[C@@H]2CC[C@H]3[C@]45CO[C@H](CC4=O)C(C)(C)C5=C(O)C(=O)[C@]3(C2)[C@@H]1O (relative stereo) | 12.9 | 12.6 | 15.4 | 15.8 | 9.9 | 9.9 | 21.5 | 20 | 24.9 | 25.1 |
| C[C@@H]1C[C@](O)([C@@H]2CC[C@@H]3[C@@H](C2)C(=O)[C@@H](O)[C@@H]2C(C)(C)[C@H]4CC(=O)[C@@]32CO4)C(=O)O1 [LAXIFLOROLIDE B] | > 40 | > 39.8 | > 40 | > 39.8 | > 40 | > 39.8 | > 40 | > 39.8 | > 40 | > 39.8 |
| C=C1C(=O)[C@]23C[C@H]1CC[C@H]2[C@@]12CO[C@]3(O)[C@@H](O)[C@@H]1C(C)(C)C=CC2=O [ERIOCALYXIN B] | 0.6 | 0.631 | 0.5 | 0.501 | 0.3 | 0.316 | 0.8 | 0.794 | 3.1 | 3.16 |
| C=C(C=O)[C@@H]1CC[C@@H]2[C@@H](C1)C(=O)[C@@H](O)[C@@H]1C(C)(C)[C@H]3CC(=O)[C@@]21CO3 [LAXIFLORIN P] | 3.2 | 3.16 | 3.1 | 3.16 | 3.8 | 3.98 | 5.6 | 5.01 | 11.7 | 12.6 |
| C[C@H]1C[C@](O)([C@@H]2CC[C@@H]3[C@@H](C2)C(=O)[C@@H](O)[C@@H]2C(C)(C)[C@H]4CC(=O)[C@@]32CO4)C(=O)O1 [LAXIFLOROLIDE A] | > 40 | > 39.8 | > 40 | > 39.8 | > 40 | > 39.8 | > 40 | > 39.8 | > 40 | > 39.8 |
| C=C1C(=O)[C@]23C[C@H]1CC[C@H]2[C@]12CO[C@H](CC1=O)C(C)(C)C2=C(O)C3=O [MAOECRYSTAL P] | 1.8 | 2 | 2.1 | 2 | 1 | 1 | 2.8 | 2.51 | 6.3 | 6.31 |
